# Laboratory results as given in patent US20050159427A1, “N-acylsulfonamide apoptosis promoters” (priority 2003, published 2005).
# Entries after “also recorded” stand apart in the source; their conditions may differ.
# Tests used:
# DLD-1 = test: Tumor cell viability (TABLE 1); format: cell-based; settings: Homo sapiens, read-out: EC50 (50% reduction in cell viability); DLD-1 (Colorectal); serum-free conditions, 48 hour treatment; mean ± SEM
# HS-578T = test: Tumor cell viability (TABLE 1); format: cell-based; settings: Homo sapiens, read-out: EC50 (50% reduction in cell viability); HS-578T (Breast); serum-free conditions, 48 hour treatment; mean ± SEM
# MALME-3M = test: Tumor cell viability (TABLE 1); format: cell-based; settings: Homo sapiens, read-out: EC50 (50% reduction in cell viability); MALME-3M (Melanoma); serum-free conditions, 48 hour treatment; mean ± SEM
# Calu-6 = test: Tumor cell viability (TABLE 1); format: cell-based; settings: Homo sapiens, read-out: EC50 (50% reduction in cell viability); Calu-6 (Non-Small Cell Lung); serum-free conditions, 48 hour treatment; mean ± SEM
# RS11380 = RS11380 model of B-cell follicular lymphoma; format: in vivo
# SK-MEL-28 = test: Tumor cell viability (TABLE 1); format: cell-based; settings: Homo sapiens, read-out: EC50 (50% reduction in cell viability); SK-MEL-28 (Melanoma); serum-free conditions, 48 hour treatment; mean ± SEM
# MiaPaCa = test: Tumor cell viability (TABLE 1); format: cell-based; settings: Homo sapiens, MIA PaCa-2, read-out: EC50 (50% reduction in cell viability); MiaPaCa (Pancreas); serum-free conditions, 48 hour treatment; mean ± SEM
# NCI-H23 = test: Tumor cell viability (TABLE 1); format: cell-based; settings: Homo sapiens, read-out: EC50 (50% reduction in cell viability); NCI-H23 (Non-Small Cell Lung); serum-free conditions, 48 hour treatment; mean ± SEM
# MCF7 = test: Tumor cell viability (TABLE 1); format: cell-based; settings: Homo sapiens, read-out: EC50 (50% reduction in cell viability); MCF7 (Breast); serum-free conditions, 48 hour treatment; mean ± SEM
# SN12C = test: Tumor cell viability (TABLE 1); format: cell-based; settings: Homo sapiens, read-out: EC50 (50% reduction in cell viability); SN12C (Renal); serum-free conditions, 48 hour treatment; mean ± SEM
# OVCAR-8 = test: Tumor cell viability (TABLE 1); format: cell-based; settings: Homo sapiens, read-out: EC50 (50% reduction in cell viability); OVCAR-8 (Ovarian); serum-free conditions, 48 hour treatment; mean ± SEM
# SF-539 = test: Tumor cell viability (TABLE 1); format: cell-based; settings: Homo sapiens, read-out: EC50 (50% reduction in cell viability); SF-539 (CNS); serum-free conditions, 48 hour treatment; mean ± SEM
# A549/ATCC = test: Tumor cell viability (TABLE 1); format: cell-based; settings: Homo sapiens, read-out: EC50 (50% reduction in cell viability); A549/ATCC (Non-Small Cell Lung); serum-free conditions, 48 hour treatment; mean ± SEM
# HOP-62 = test: Tumor cell viability (TABLE 1); format: cell-based; settings: Homo sapiens, read-out: EC50 (50% reduction in cell viability); HOP-62 (Non-Small Cell Lung); serum-free conditions, 48 hour treatment; mean ± SEM
# SF-268 = test: Tumor cell viability (TABLE 1); format: cell-based; settings: Homo sapiens, read-out: EC50 (50% reduction in cell viability); SF-268 (CNS); serum-free conditions, 48 hour treatment; mean ± SEM
# CCRF-CEM = CCRF-CEM systemic model of acute lymphoblastoid leukemia; format: in vivo, mouse
# Excerpt: CCRF-CEM is a p53-mutant acute lympoblastoid leukemia line of T-cell origin used as an animal (mouse) model of systemic leukemia involving intravenous inoculation of tumor cells. If left untreated, the mice succumb to disease within about 34 days post inoculation, at which time extensive tumor infiltration of spleen, liver, and bone marrow has occured.
# SW-620 = test: Tumor cell viability (TABLE 1); format: cell-based; settings: Homo sapiens, read-out: EC50 (50% reduction in cell viability); SW-620 (Colorectal); serum-free conditions, 48 hour treatment; mean ± SEM
# [1] = Combination therapy studies with cytotoxic agents; settings: with etoposide, vincristine, modified CHOP, doxorubicin, rapamycin and Rituxin®
# COLO 205 = test: Tumor cell viability (TABLE 1); format: cell-based; settings: Homo sapiens, read-out: EC50 (50% reduction in cell viability); COLO 205 (Colorectal); serum-free conditions, 48 hour treatment; mean ± SEM
# BT-549 = test: Tumor cell viability (TABLE 1); format: cell-based; settings: Homo sapiens, read-out: EC50 (50% reduction in cell viability); BT-549 (Breast); serum-free conditions, 48 hour treatment; mean ± SEM
# [2] = test system: DoHH2 follicular lymphoma flank tumors; test: DoHH2 follicular lymphoma model; format: in vivo
# NCI-H322M = test: Tumor cell viability (TABLE 1); format: cell-based; settings: Homo sapiens, read-out: EC50 (50% reduction in cell viability); NCI-H322M (Non-Small Cell Lung); serum-free conditions, 48 hour treatment; mean ± SEM
# SK-OV-3 = test: Tumor cell viability (TABLE 1); format: cell-based; settings: Homo sapiens, read-out: EC50 (50% reduction in cell viability); SK-OV-3 (Ovarian); serum-free conditions, 48 hour treatment; mean ± SEM
# ACHN = test: Tumor cell viability (TABLE 1); format: cell-based; settings: Homo sapiens, read-out: EC50 (50% reduction in cell viability); ACHN (Renal); serum-free conditions, 48 hour treatment
# [3] = established flank tumors, sustained period of time
structure (smiles),measurement,setting,value
"CN(C)CC[C@H](CSc1ccccc1)Nc1ccc(S(=O)(=O)NC(=O)c2ccc(N3CCN(Cc4ccccc4-c4ccc(Cl)cc4)CC3)cc2)cc1[N+](=O)[O-] [EXAMPLE 2, N-(4-(4-((4′-chloro(1,1′-biphenyl)-2-yl)methyl)piperazin-1-yl)benzoyl)-4-(((1R)-3-(dimethylamino)-1-((phenylsulfanyl)methyl)propyl)amino)-3-nitrobenzenesulfonamide]",EC50,DLD-1,0.99 ± 0.45 µM
same,EC50,HS-578T,7.2 ± 8.2 µM
same,EC50,MALME-3M,1.9 ± 0.8 µM
same,EC50,Calu-6,0.18 ± 0.07 µM
same,activity in follicular lymphoma model,RS11380,significant activity
same,EC50,SK-MEL-28,9.3 ± 0.1 µM
same,EC50,MiaPaCa,1.4 ± 0.6 µM
same,EC50,NCI-H23,7.4 ± 0.6 µM
same,EC50,MCF7,2 ± 0.8 µM
same,EC50,SN12C,3.2 ± 0.2 µM
same,EC50,OVCAR-8,3.4 ± 0.8 µM
same,EC50,SF-539,4.1 ± 0.6 µM
same,EC50,A549/ATCC,5.2 ± 0.2 µM
same,EC50,HOP-62,6.3 ± 6.7 µM
same,EC50,SF-268,8.3 ± 0.4 µM
same,activity in leukemia model,CCRF-CEM; CCRF-CEM T-cell acute lymphoblastoid leukemia model,significant activity
same,survival,"CCRF-CEM; mice, intravenous inoculation of tumor cells",prolonged survival; also recorded: increased the average survival
same,tumor infiltration in liver and spleen (histopathology),CCRF-CEM; relative to controls,lower tumor infiltration
same,average spleen weight,CCRF-CEM; relative to vehicle controls,significant decrease in average spleen weight
same,EC50,SW-620,0.69 ± 0.07 µM
same,effect on efficacy of cytotoxic agents during combination therapy,[1],synergistically enhanced efficacy
same,EC50,COLO 205,0.51 ± 0.07 µM
same,EC50,BT-549,6.5 ± 2.3 µM
same,"tumor regression, combination with Rituxin®",[2]; [3],complete regression of a significant percentage of established DoHH2 follicular lymphoma flank tumors
same,"tumor regression, combination with rapamycin",[2]; [3],complete regression of a significant percentage of established DoHH2 follicular lymphoma flank tumors
same,tumor growth,[2]; model of follicular lymphoma (DOHH-2),inhibited tumor growth
same,EC50,NCI-H322M,4.1 ± 0.8 µM
same,EC50,SK-OV-3,5.6 ± 1 µM
same,EC50,ACHN,1 µM
